{"source": "patent US9211485B2", "about": "“Method for producing crystalline active ingredient particles” (Jesalis Pharma GmbH, priority 2010, dated 2015)", "format_in_all_cases": "physicochemical", "key": {"[1]": {"assay": "Particle size distribution by laser diffraction, wet measurement (Malvern Mastersizer E)", "settings": "for d50 / d90 / d10: dried product, laser diffraction wet measurement; for d50: average particle size; for d10: vol.-%; for span: span=(d90−d10)/d50", "method": "The particle size and the particle size distribution (grain-size distribution) are determined with the help of a customary laser diffraction in a wet measurement which delivers a distribution curve of the particle sizes (Malvern System, Mastersizer E, wet measurement in the cuvette). dx means that x volume percent (vol.-%) of the particles have a diameter which is smaller than the given value. With a d50 value of 1 μm 50 vol.-% of the particles thus have a diameter of less than 1 μm (micrometer). The d50 value is a measure of the average (volume average) particle diameter and is therefore also called average particle diameter. With a d10 of 15 μm and a d90 of 50 μm 10 vol.-% of the particles have a diameter of less than 15 μm and 90 vol.-% of the particles have a diameter of less than 50 μm.\nSample preparation for wet measurement of the particle size and particle size distribution: 12.5 mg sample is dispersed in 25 ml aqueous surfactant solution (0.1% Tween 80 in water, saturated with active ingredient and filtered over a 0.2 μm filter) by means of ultrasound sonotrode (Hielscher, d=7 mm, 30% output) for 4 min. The thus-obtained suspension is added dropwise, accompanied by stirring, to the measuring vessel which contains filtered surfactant solution, until the obscuration (clouding) reaches 10% and the particle size distribution is determined by the above-described laser diffraction. An average value is determined from five measurements.\nAn advantage of the method according to embodiments of the invention is the generation of a very narrow particle size distribution. Additionally, largely agglomerate-free particles are obtained. This is achieved by the synchronous counterrotation of destructive grinding and ultrasound processes on the one hand and constructive crystal growth on the other hand. In the region of coarse grain sizes and agglomerates, above all the disintegration effect (grinding process and ultrasound) acts primarily in the direction of a reduction, and in the fine-grain region the crystal growth acts in the direction of an increase in the particle size. Thus, very narrow particle size distributions are achieved. The width of a particle size distribution (span) is defined as follows: span=(d90−d10)/d50."}, "[2]": {"assay": "Agglomeration factor: d90 (Ultra Turrax stirrer) / d90 (ultrasound sonotrode)", "settings": "d90(agglomerated particles)/d90(non-agglomerated particles)", "excerpt": "The degree of agglomeration of the crystallized active ingredient particles is described by the agglomeration factor (AGF). This is defined by the quotient of the diameter of the agglomerated particles and of the diameter of the non-agglomerated particles. This method is most informative for agglomeration when comparing the d90 values. The agglomeration factor within the meaning of the present invention is therefore defined as follows: Agglomeration factor=d90(agglomerated particles)/d90(non-agglomerated particles)\nThese two d90 values are determined by different energy input into the sample to be tested.\nWith a high input of energy, existing agglomerates decompose and the following particle size measurement delivers the d90 of the non-agglomerated particles. […]\nWith a low energy input on the other hand agglomerates are largely spared and the following particle size measurement delivers the d90(agglomerated particles). […] The thus-obtained suspension is added dropwise accompanied by stirring to the measuring vessel which contains filtered surfactant solution, until the obscuration reaches 10% and the particle size distribution is determined by the above-described laser diffraction. An average value is determined from five measurements. […]"}, "[3]": {"assay": "Crystallinity by X-ray powder diffractometry (XRPD) relative to a reference material", "settings": "relative to reference sample", "method": "The crystallinity is determined by means of X-ray powder diffractometry (XRPD) (apparatus: Siemens D8, fixed sample position). After background correction the integral intensities in the X-ray diffractogram are compared with those of a reference material. This reference material can for example be a conventional precipitation product or a product according to a different production method with known crystallinity and granulation. Thus the crystallinity is a relative value which characterizes the degree of order compared with a reference sample. The relationship of the integral reflex intensities of particle sample and reference sample is therefore the quantitative expression of its difference in crystallinity."}}, "data": [{"smiles": "CC(=O)[C@H]1CC[C@H]2[C@@H]3CCC4=CC(=O)CC[C@]4(C)[C@H]3CC[C@]12C", "note": "[Example 1, progesterone]", "values": [{"measurement": "d50", "setting": "[1]", "result": 34, "unit": "μm"}, {"measurement": "d90", "setting": "[1]", "result": 64, "unit": "μm"}, {"measurement": "d10", "setting": "[1]", "result": 12, "unit": "μm"}, {"measurement": "span", "setting": "[1]", "result": 1.5}, {"measurement": "AGF (agglomeration factor)", "setting": "[2]", "result": 1.3}, {"measurement": "crystallinity", "setting": "[3]", "result": 100, "unit": "%"}]}, {"smiles": "CC(=O)[C@H]1CC[C@H]2[C@@H]3CCC4=CC(=O)CC[C@]4(C)[C@H]3CC[C@]12C", "note": "[Example 2, progesterone]", "values": [{"measurement": "d50", "setting": "[1]", "result": 26, "unit": "μm"}, {"measurement": "d90", "setting": "[1]", "result": 45, "unit": "μm"}, {"measurement": "d10", "setting": "[1]", "result": 10, "unit": "μm"}, {"measurement": "span", "setting": "[1]", "result": 1.3}, {"measurement": "AGF (agglomeration factor)", "setting": "[2]", "result": 1.1}, {"measurement": "crystallinity", "setting": "[3]", "result": 100, "unit": "%"}]}]}
